Drawing on patent publication US6706721B1, “N-(3-ethynylphenylamino)-6,7-bis(2-methoxyethoxy)-4-quinazolinamine mesylate anhydrate and monohydrate” (OSI Pharmaceuticals, Inc., priority 1998, dated 2004), this text covers hygroscopicity and thermal degradation for one compound.

Series [1] is described as follows: hygroscopicity. Type of series: physicochemical.
Series [2] can be described thus: resistance to thermal degradation. It counts as physicochemical.

For the compound `C#Cc1cccc(Nc2ncnc3cc(OCCOC)c(OCCOC)cc23)c1.CS(=O)(=O)O` [Polymorph C, N-(3-ethynylphenyl)-6,7-bis(2-methoxyethoxy)-4-quinazolinamine Mesylate Salt], in series [1], the hygroscopicity result is “essentially non-hygroscopic”. Moreover, the thermal degradation result in series [2] is given as “resistance to thermal degradation”.
